What was measured:
GTPase KRas [1] = biological target: GTPase KRas (Homo sapiens, UniProt P01116, G12C); assay: Inhibition of KRAS G12C mutant in human NCI-H358 cells incubated for 6 hrs by LC-MS/MS analysis; assay type: cell-based
[2] = Inhibition of ERK phosphorylation in human MIA PaCa-2 cells; assay type: cell-based
SW480 = assay: Antitumor activity against human SW480 cells xenografted in athymic nude mouse assessed as inhibition of tumor growth at 80 mg/kg, po administered 5 days a week for 17 to 20 days relative to control; assay type: functional; conditions: time 17-20 day
NIH3T3 = assay: Antiproliferative activity against mouse NIH3T3 cells transfected with HRAS G12V mutant assessed as inhibition of cell growth incubated for 14 days by dissecting microscope based colony counting assay; assay type: functional; conditions: NIH3T3, 336 h
GTPase HRas = GTPase HRas (Homo sapiens, UniProt P01112); assay: Inhibition of GST-tagged HRAS (1 to 166 residues) (unknown origin) assessed as inhibition of mSOS1 mediated nucleotide exchange by [35S]GTPgammaS based liquid scintillation counting method
[3] = Inhibition of Ras GTPase activation in HEK293T cells; assay type: cell-based, Homo sapiens
[4] = Inhibition of SOS1/KRAS (unknown origin) protein-protein interaction; set-up: species or system Homo sapiens
GTPase KRas [5] = biological target: GTPase KRas (Homo sapiens, UniProt P01116, G12V); assay: Binding affinity to GppNHp-tagged KRAS G12V mutant (unknown origin)
[6] = Inhibition of ERK phosphorylation in human NCI-H358 cells; assay type: cell-based
[7] = system: GTPase KRas (Homo sapiens), P01116 [G12C]; assay: Binding affinity to KRAS G12C mutant (unknown origin) assessed as covalent bond formation by measuring Kobs/[I] ratio
HT-1080 = assay: Cytotoxicity against human HT-1080 cells harboring NRAS Q61K mutant assessed as inhibition of cell growth incubated for 72 hrs by celltiter-glo luminescent cell viability assay; assay type: functional, cell-based; conditions: HT-1080, 72 h

C=CC(=O)N1CC(N2CCN(C(=O)CNc3cc(Cl)c(Cl)cc3O)CC2)C1
IC50 (GTPase KRas [1]): 50 µM

C=CC(=O)N1CCN(c2nc(=O)n(-c3c(C)ccnc3C(C)C)c3nc(-c4c(O)cccc4F)c(F)cc23)[C@@H](C)C1 [SOTORASIB]
IC50 [2]: 0.068 µM

Cc1ccc(NC(=S)NNc2c([N+](=O)[O-])cc(C(F)(F)F)cc2[N+](=O)[O-])cc1Cl
inhibition in vivo at 80 mg/kg (SW480): 40%
IC50 (NIH3T3): 0.5 µM
IC50 (GTPase HRas): 20 µM

Cc1[nH]c2cc(Cl)cc(Cl)c2c1CCN
EC50 [3]: 15.8 µM

COc1cc2nc(C)nc(N[C@H](C)c3cc(N)cc(C(F)(F)F)c3)c2cc1O[C@H]1CCOC1
IC50 [4]: 0.005 µM

O=C(NCC1COc2ccccc2O1)c1ccco1 (stereo unspecified)
Kd (GTPase KRas [5]): 235 µM

C=CC(=O)N1CCN(C(=O)CNc2cc(I)c(Cl)cc2O)CC1
IC50 (GTPase KRas [1]): 100 µM

C=CC(=O)N1CCN(c2ncnc3c2CCN(c2cc(O)cc4ccccc24)C3)CC1
IC50 [6]: 7.6 µM

O=[N+]([O-])c1cc(C(F)(F)F)cc([N+](=O)[O-])c1NNC(=S)Nc1ccc(F)cc1
IC50 (NIH3T3): 1.4 µM
IC50 (GTPase HRas): 100 µM

C=CC(=O)N1CC(NC(=O)COc2ccc(Br)cc2NC(=O)c2cc(C)no2)C1
Ratio [7]: 2 M⁻¹ s⁻¹

COc1nc(-c2cccc3c2OCCO3)ccc1Nc1ccc(CN(C)C)cc1
IC50 (HT-1080): 10 µM

COc1cc2ncnc(N[C@H](C)c3ccccc3)c2cc1OC
IC50 [4]: 1.6 µM

C=CC(=O)N1CC(NC(=O)Cn2cc(C(=O)N3CCc4c(cccc4OC)C3)c3cc(Br)ccc32)C1
Ratio [7]: 230 M⁻¹ s⁻¹
